# Results: patent publication US12371454B2, “Cyclic peptide compound having Kras inhibitory action” (priority 2019, dated 2025)
# pIC50: −log10 of the molar value. Positions of bridges follow the written chain, without caps; N, C: chain ends. Non-standard residues stand in square brackets, D forms with d. Residues, ends and D or L forms follow the SMILES beside them. *: point of attachment. hPhe(3-Cl-4-CF3) = N[C@@H](CCc1ccc(C(F)(F)F)c(Cl)c1)C(=O)O; hPhe(3-F,4-CF3) = N[C@@H](CCc1ccc(C(F)(F)F)c(F)c1)C(=O)O; NMePhe(4-CF3) = CN[C@@H](Cc1ccc(C(F)(F)F)cc1)C(=O)O; hPhe(4-CF3) = N[C@@H](CCc1ccc(C(F)(F)F)cc1)C(=O)O; NMePhe(4-Me) = CN[C@@H](Cc1ccc(C)cc1)C(=O)O; NMeNle(6-CHF2) = CN[C@@H](CCCCC(F)F)C(=O)O; NMeGly(cPent) = CN[C@H](C(=O)O)C1CCCC1; Pro(4,4-F2) = O=C(O)[C@@H]1CC(F)(F)CN1; NMeCha = CN[C@@H](CC1CCCCC1)C(=O)O; NMeD = CN[C@@H](CC(=O)O)C(=O)O; CH2CONHtBu = CC(C)(C)NC(=O)C*; NMeL = CN[C@@H](CC(C)C)C(=O)O; NMeNle = CCCC[C@H](NC)C(=O)O; d(β3hA) = C[C@@H](N)CC(=O)O; NMeS = CN[C@@H](CO)C(=O)O; NMeA = CN[C@@H](C)C(=O)O; Nle = CCCC[C@H](N)C(=O)O; Piperidide = C1CCN(*)CC1; Pyrrolidide = C1CCN(*)C1; dNMeA = CN[C@H](C)C(=O)O; Ac5c = NC1(C(=O)O)CCCC1; Aze = O=C(O)[C@@H]1CCN1; Ac4c = NC1(C(=O)O)CCC1; Aib = CC(C)(N)C(=O)O; Isopentyl = CC(C)CC*; NEtG = CCNCC(=O)O; Sar = CNCC(=O)O
# Molecular target: T1, Kras and SOS1 (biotin-tagged human Kras loaded with GDP, His-tagged human SOS1) (Homo sapiens, UniProt P01116, G12D)
# T1 construct: made in house; host or cells: E. coli (stated for Kras only)
# T1 sequence (P01116 1-188 isoform P01116-2 G12D): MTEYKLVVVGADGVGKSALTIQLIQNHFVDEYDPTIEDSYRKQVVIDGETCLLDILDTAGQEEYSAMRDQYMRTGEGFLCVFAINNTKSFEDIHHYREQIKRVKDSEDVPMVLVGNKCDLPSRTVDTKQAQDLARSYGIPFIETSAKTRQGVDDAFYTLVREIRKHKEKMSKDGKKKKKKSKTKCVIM
# Assay: Protein-protein interaction inhibition between Kras and SOS1 (KrasGl2D-SOS PPI) using AlphaScreen
# Format: binding
# Settings: AlphaScreen; biotin-tagged human Kras loaded with GDP, His-tagged human SOS1; read-out: KRAS G12D-SOS PPI IC50
# Procedure, shortened: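 Donor beads (nickel) hold His-SOS1; acceptor beads (streptavidin) hold biotin-Kras bound to GDP. Signal measured at 520-620 nm following 680 nm excitation.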
row,SMILES,pIC50
1,CC[C@H](C)[C@@H]1NC(=O)[C@H](CC(C)C)N(C)C(=O)C[C@@H](C)NC(=O)[C@H](C2CCCC2)N(C)C(=O)C2(CCCC2)NC(=O)[C@@H]2CCCN2C(=O)[C@H](CCc2ccc(C(F)(F)F)c(Cl)c2)NC(=O)[C@H]2CCCN2C(=O)[C@H](Cc2ccc(C)cc2)N(C)C(=O)CN(C)C(=O)CN(C)C1=O [Compound 1487] (cyclo([Ac5c][NMeGly(cPent)][d(β3hA)][NMeL]I[Sar][Sar][NMePhe(4-Me)][dP][hPhe(3-Cl-4-CF3)]P)),6.47
2,CC[C@H](C)[C@@H]1NC(=O)[C@H](CC(C)C)N(C)C(=O)C[C@@H](C)NC(=O)[C@H](C2CCCC2)N(C)C(=O)C2(CCCC2)NC(=O)[C@@H]2CCCN2C(=O)[C@H](CCc2ccc(C(F)(F)F)c(Cl)c2)NC(=O)[C@H]2CCCN2C(=O)[C@H](Cc2ccc(C)cc2)N(C)C(=O)[C@@H]2CCN2C(=O)CN(C)C1=O [Compound 1488] (cyclo([Ac5c][NMeGly(cPent)][d(β3hA)][NMeL]I[Sar][Aze][NMePhe(4-Me)][dP][hPhe(3-Cl-4-CF3)]P)),6.59
3,"CC[C@H](C)[C@@H]1NC(=O)[C@H](CC(C)C)N(C)C(=O)C[C@@H](C(=O)N2CCCC2)NC(=O)[C@H](CC(C)C)N(C)C(=O)C2(CCCC2)NC(=O)[C@@H]2CCCN2C(=O)[C@H](CCc2ccc(C(F)(F)F)c(F)c2)NC(=O)CN(C)C(=O)[C@H](CC2CCCCC2)N(C)C(=O)CN(C)C(=O)CN(C)C1=O [Compound 1489] ([NMeL]I[Sar][Sar][NMeCha][Sar][hPhe(3-F,4-CF3)]P[Ac5c][NMeL]D-Pyrrolidide; lactam N-11)",7.74
4,"CCCC[C@@H]1NC(=O)[C@H](CC(C)C)N(C)C(=O)C[C@@H](C)NC(=O)[C@H](CC(C)C)N(C)C(=O)C2(CCCC2)NC(=O)[C@@H]2CCCN2C(=O)[C@H](CCc2ccc(C(F)(F)F)c(F)c2)NC(=O)CN(C)C(=O)[C@H](CC2CCCCC2)N(C)C(=O)CN(C)C(=O)CN(C)C1=O [Compound 1490] (cyclo([Ac5c][NMeL][d(β3hA)][NMeL][Nle][Sar][Sar][NMeCha][Sar][hPhe(3-F,4-CF3)]P))",6.49
5,"CC(C)C[C@H]1C(=O)N[C@@H](C(C)C)C(=O)N(C)CC(=O)N(C)CC(=O)N(C)[C@@H](CC2CCCCC2)C(=O)N(C)CC(=O)N[C@@H](CCc2ccc(C(F)(F)F)c(F)c2)C(=O)N2CCC[C@H]2C(=O)NC2(CCCC2)C(=O)N(C)[C@@H](CC(C)C)C(=O)N[C@H](C)CC(=O)N1C [Compound 1493] (cyclo([Ac5c][NMeL][d(β3hA)][NMeL]V[Sar][Sar][NMeCha][Sar][hPhe(3-F,4-CF3)]P))",7.00
6,CC[C@H](C)[C@@H]1NC(=O)[C@H](C)N(C)C(=O)C[C@@H](C)NC(=O)[C@H](C2CCCC2)N(C)C(=O)C2(CCCC2)NC(=O)[C@@H]2CCCN2C(=O)[C@H](CCc2ccc(C(F)(F)F)c(Cl)c2)NC(=O)[C@H]2CCCN2C(=O)[C@H](Cc2ccc(C)cc2)N(C)C(=O)[C@@H]2CCN2C(=O)CN(C)C1=O [Compound 1494] (cyclo([Ac5c][NMeGly(cPent)][d(β3hA)][NMeA]I[Sar][Aze][NMePhe(4-Me)][dP][hPhe(3-Cl-4-CF3)]P)),6.85
7,CC[C@H](C)[C@@H]1NC(=O)[C@H](CC(C)C)N(C)C(=O)C[C@@H](C(=O)N2CCCCC2)N(C)C(=O)[C@H](CC(C)C)N(C)C(=O)C(C)(C)NC(=O)[C@H](COCC(=O)NC(C)(C)C)N(C)C(=O)[C@H](CCc2ccc(C(F)(F)F)cc2)NC(=O)CN(C)C(=O)[C@H](COCCC(C)C)N(C)C(=O)CN(C)C(=O)CN(C)C1=O [Compound 1502] ([NMeL]I[Sar][Sar][NMeS](Isopentyl)[Sar][hPhe(4-CF3)][NMeS](CH2CONHtBu)[Aib][NMeL][NMeD]-Piperidide; lactam N-11),7.62
8,CC[C@H](C)[C@@H]1NC(=O)[C@H](CC(C)C)N(C)C(=O)C[C@@H](C)NC(=O)[C@H](CC(C)C)N(C)C(=O)C2(CCCC2)NC(=O)[C@@H]2CCCN2C(=O)[C@H](CCc2ccc(C(F)(F)F)c(Cl)c2)NC(=O)CN(C)C(=O)[C@H](CC2CCCCC2)N(C)C(=O)CN(C)C(=O)CN(C)C1=O [Compound 1503] (cyclo([Ac5c][NMeL][d(β3hA)][NMeL]I[Sar][Sar][NMeCha][Sar][hPhe(3-Cl-4-CF3)]P)),7.80
9,CC[C@H](C)[C@@H]1NC(=O)[C@H](C)N(C)C(=O)C[C@@H](C)NC(=O)[C@H](C2CCCC2)N(C)C(=O)C2(CCC2)NC(=O)[C@@H]2CCCN2C(=O)[C@H](CCc2ccc(C(F)(F)F)c(Cl)c2)NC(=O)CN(C)C(=O)[C@H](CC2CCCCC2)N(C)C(=O)CN(C)C(=O)CN(C)C1=O [Compound 1506] (cyclo([Ac4c][NMeGly(cPent)][d(β3hA)][NMeA]I[Sar][Sar][NMeCha][Sar][hPhe(3-Cl-4-CF3)]P)),8.54
10,CC[C@H](C)[C@@H]1NC(=O)[C@H](C)N(C)C(=O)C[C@@H](C)NC(=O)[C@H](C2CCCC2)N(C)C(=O)C2(CCCC2)NC(=O)[C@@H]2CCCN2C(=O)[C@H](CCc2ccc(C(F)(F)F)c(Cl)c2)NC(=O)[C@@H](C)N(C)C(=O)[C@H](Cc2ccc(C(F)(F)F)cc2)N(C)C(=O)[C@@H]2CCN2C(=O)CN(C)C1=O [Compound 1507] (cyclo([Ac5c][NMeGly(cPent)][d(β3hA)][NMeA]I[Sar][Aze][NMePhe(4-CF3)][dNMeA][hPhe(3-Cl-4-CF3)]P)),7.62
11,"CC[C@H](C)[C@@H]1NC(=O)[C@H](CC(C)C)N(C)C(=O)C[C@@H](C)NC(=O)[C@H](CC(C)C)N(C)C(=O)C2(CCCC2)NC(=O)[C@@H]2CC(F)(F)CN2C(=O)[C@H](CCc2ccc(C(F)(F)F)c(F)c2)NC(=O)CN(C)C(=O)[C@H](CC2CCCCC2)N(C)C(=O)CN(C)C(=O)CN(C)C1=O [Compound 1509] (cyclo([Ac5c][NMeL][d(β3hA)][NMeL]I[Sar][Sar][NMeCha][Sar][hPhe(3-F,4-CF3)][Pro(4,4-F2)]))",7.64
12,CC[C@H](C)[C@@H]1NC(=O)[C@H](C)N(C)C(=O)C[C@@H](C)NC(=O)[C@H](C2CCCC2)N(C)C(=O)C2(CCCC2)NC(=O)[C@@H]2CCCN2C(=O)[C@H](CCc2ccc(C(F)(F)F)c(Cl)c2)NC(=O)[C@@H](C)N(C)C(=O)[C@H](CC2CCCCC2)N(C)C(=O)[C@@H]2CCN2C(=O)[C@H](C)N(C)C1=O [Compound 1510] (cyclo([Ac5c][NMeGly(cPent)][d(β3hA)][NMeA]I[NMeA][Aze][NMeCha][dNMeA][hPhe(3-Cl-4-CF3)]P)),6.96
13,CC[C@H](C)[C@@H]1NC(=O)[C@H](CC(C)C)N(C)C(=O)C[C@@H](C)NC(=O)[C@H](CC(C)C)N(C)C(=O)C(C)(C)NC(=O)[C@H](COCC(=O)NC(C)(C)C)N(C)C(=O)[C@H](CCc2ccc(C(F)(F)F)c(Cl)c2)NC(=O)CN(C)C(=O)[C@H](COCCC(C)C)N(C)C(=O)[C@@H]2CCN2C(=O)CN(CC)C1=O [Compound 1513] (cyclo([Aib][NMeL][d(β3hA)][NMeL]I[NEtG][Aze][NMeS](Isopentyl)[Sar][hPhe(3-Cl-4-CF3)][NMeS](CH2CONHtBu))),6.57
14,"CC[C@H](C)[C@@H]1NC(=O)[C@H](CC(C)C)N(C)C(=O)C[C@@H](C)NC(=O)[C@H](CC(C)C)N(C)C(=O)C2(CCCC2)NC(=O)[C@@H]2CCCN2C(=O)[C@H](CCc2ccc(C(F)(F)F)c(F)c2)NC(=O)CN(C)C(=O)[C@H](CCCCC(F)F)N(C)C(=O)CN(C)C(=O)CN(C)C1=O [Compound 1515] (cyclo([Ac5c][NMeL][d(β3hA)][NMeL]I[Sar][Sar][NMeNle(6-CHF2)][Sar][hPhe(3-F,4-CF3)]P))",7.11
15,"CCCC[C@H]1C(=O)N[C@H](C)CC(=O)N(C)[C@@H](CC(C)C)C(=O)N[C@@H]([C@@H](C)CC)C(=O)N(C)CC(=O)N(C)CC(=O)N(C)[C@@H](CC2CCCCC2)C(=O)N(C)CC(=O)N[C@@H](CCc2ccc(C(F)(F)F)c(F)c2)C(=O)N2CCC[C@H]2C(=O)NC2(CCCC2)C(=O)N1C [Compound 1518] (cyclo([Ac5c][NMeNle][d(β3hA)][NMeL]I[Sar][Sar][NMeCha][Sar][hPhe(3-F,4-CF3)]P))",6.43
16,CC[C@H](C)[C@@H]1NC(=O)[C@H](C)N(C)C(=O)C[C@@H](C)NC(=O)[C@H](C2CCCC2)N(C)C(=O)C2(CCCC2)NC(=O)[C@@H]2CCCN2C(=O)[C@H](CCc2ccc(C(F)(F)F)c(Cl)c2)NC(=O)[C@@H](C)N(C)C(=O)[C@H](Cc2ccc(C(F)(F)F)cc2)N(C)C(=O)CN(C)C(=O)CN(C)C1=O [Compound 1520] (cyclo([Ac5c][NMeGly(cPent)][d(β3hA)][NMeA]I[Sar][Sar][NMePhe(4-CF3)][dNMeA][hPhe(3-Cl-4-CF3)]P)),7.23
17,CC[C@H](C)[C@@H]1NC(=O)[C@H](CC(C)C)N(C)C(=O)C[C@@H](C)NC(=O)[C@H](C2CCCC2)N(C)C(=O)C2(CCCC2)NC(=O)[C@@H]2CCCN2C(=O)[C@H](CCc2ccc(C(F)(F)F)c(Cl)c2)NC(=O)[C@@H](C)N(C)C(=O)[C@H](Cc2ccc(C)cc2)N(C)C(=O)CN(C)C(=O)CN(C)C1=O [Compound 1521] (cyclo([Ac5c][NMeGly(cPent)][d(β3hA)][NMeL]I[Sar][Sar][NMePhe(4-Me)][dNMeA][hPhe(3-Cl-4-CF3)]P)),6.96
18,CC[C@H](C)[C@@H]1NC(=O)[C@H](C)N(C)C(=O)C[C@@H](C)NC(=O)[C@H](C2CCCC2)N(C)C(=O)C2(CCCC2)NC(=O)[C@@H]2CCCN2C(=O)[C@H](CCc2ccc(C(F)(F)F)c(Cl)c2)NC(=O)[C@H]2CCCN2C(=O)[C@H](Cc2ccc(C(F)(F)F)cc2)N(C)C(=O)[C@@H]2CCN2C(=O)CN(C)C1=O [Compound 1522] (cyclo([Ac5c][NMeGly(cPent)][d(β3hA)][NMeA]I[Sar][Aze][NMePhe(4-CF3)][dP][hPhe(3-Cl-4-CF3)]P)),7.05
19,"CC[C@H](C)[C@@H]1NC(=O)[C@H](CC(C)C)N(C)C(=O)C[C@@H](C)NC(=O)[C@H](CC(C)C)N(C)C(=O)C(C)(C)NC(=O)[C@H](CC(C)C)N(C)C(=O)[C@H](CCc2ccc(C(F)(F)F)c(F)c2)NC(=O)CN(C)C(=O)[C@H](CCCCC(F)F)N(C)C(=O)CN(C)C(=O)CN(C)C1=O [Compound 1526] (cyclo([Aib][NMeL][d(β3hA)][NMeL]I[Sar][Sar][NMeNle(6-CHF2)][Sar][hPhe(3-F,4-CF3)][NMeL]))",7.00
